“Also recorded” adds a separate entry of the source.
Tests used:
[1] = test system: KG1a cells; experiment: In vitro splicing of endogenous transcripts (qRT-PCR) in KG1a; type: cell-based; conditions: KG1a AML cells, compared with MOLM-13
Method: For qRT-PCR analysis of relative total mRNA expression levels or splice isoform-specific expression analyses, cDNA was synthesized using 50 ng-1 […] reaction volumes using the First-Strand SUPERSCRIPT™ III Reverse Transcriptase Supermix (Life Technologies) followed by incubation with RNase H according to the manufacturer's protocol and as described previously (Abrahamsson et al., 2009; Crews et al., 2015). All cDNA products were stored at −20° C. Splice isoform-specific primers for PTK2B-202 were designed to bind to unique exon junctions for this transcript, which lacks exon 24. All primers (Supplemental Experimental Procedures Table) were diluted to 10 ∝M working dilutions in DNase/RNase-free water. qRT-PCR was performed in duplicate using cDNA (1 ∝Λ reverse transcription product per reaction) on an iCycler (Bio-Rad, Hercules, Calif.) using SYBR® GREENER™ Super Mix (Life Technologies) in 25-∝A volume reactions containing 0.2 ∝M of each forward and reverse primer. Cycling conditions were as follows: 50° C. for 2 minutes, then 95° C. for 8 minutes and 30 seconds, followed by 40 cycles of 95° C. for 15 seconds and 60° C. for 60 seconds. […] For standard qRT-PCR, human HPRT mRNA transcript levels were used to normalize Ct values obtained for each gene, and relative expression levels were calculated using the 2-ddCt method. […]

[2] = test system: AML-37 human LSC engrafted in Rag2−/−γc−/− mice; experiment: sAML PRIMAGRAFT model AML-37: FACS engraftment analysis and serial transplantation; type: in vivo, mouse
Method: All animal studies were performed in accordance with UCSD and NIH-equivalent ethical guidelines and were approved by the Institutional Animal Care and Use Committee (IACUC protocol # S06015). For all in vivo experiments, animals of both genders were utilized. Three AML PRIMAGRAFT™ models were established by transplanting AML LSC-enriched cell fractions (either CD34-selected or FACS-purified stem or progenitor cell fractions from primary patient samples) into immunocompromised Rag2^−/−γc^−/−[20] or NOD/SCID-IL2RG mice (Jackson Laboratory) constitutively expressing human SCF, GM-CSF and IL-3 (NSGS) (FIGS. 8A-8D). For all transplantations into Rag2^−/−γc^−/− animals, neonatal mice were transplanted with human cells intrahepatically as previously described, and for all transplantations into NSGS animals, sublethally irradiated (300 Rad) adult (6-8 weeks old) mice were transplanted intravenously with 1-2×10^5 CD34^+ human cells.
For in vivo treatments, a 10 mg/mL stock solution of 17S-FD-895 solubilized in DMSO was used. After randomization, AML-engrafted mice were dosed intravenously with 17S-FD-895 (5-10 mg/kg) or vehicle (for AML-08, vehicle control=15% DMSO in PBS; for AML-37, vehicle control=20% DMSO in PBS) three times over a two-week period, with the first dose given on day 1, the second on day 7, and the third on day 14. For preparation of RNA from human LSC-enriched populations, single cell suspensions from spleen and bone marrow were CD34 double-selected (over two LS selection columns, Miltenyi) and 1-2×10^5 cells were collected in lysis buffer or pooled according to treatment group for serial transplantation assays.
Mice transplanted with 1-2×10^5 CD34^+ AML LSC-enriched fractions or no-transplant controls were screened for human hematopoietic cell engraftment (CD45^+ cells) in peripheral blood by FACS starting at 7-10 weeks post transplant. At 7-28 weeks post-transplant (7-36 weeks old), mice were euthanized, and peripheral blood and single cell suspensions of hematopoietic organs were analyzed for human cell engraftment by FACS. Total cell suspensions from bone marrow and spleen were either transplanted immediately or CD34-selected for transplant into secondary recipient mice (1-2×10^5 cells per animal) to expand the cells in vivo. […] Secondary recipient mice were euthanized after 8-23 weeks, and cell suspensions from bone marrow and spleen were CD34-selected for transplant into tertiary recipients for 17S-FD-895 treatment.
The 17S-FD-895 dosing regimen was selected as the maximum number of doses possible for the treatment of three experimental groups with the amount of synthesized compound that was available, and is consistent with weekly IV dosing regimens used in clinical trials of spliceosome inhibitory compounds in patients with solid tumors. Animals were euthanized within two hours after delivery of the final dose of 17S-FD-895, and peripheral blood, spleens and bone marrows were collected for analysis of total human cell and stem and progenitor cell engraftment, and for RNA extraction for splice isoform-specific qRT-PCR.
Flow cytometric analysis was performed on single cell suspensions from each hematopoietic tissue essentially as for primary patient samples, and frequencies of total live human CD45^+ cells, and CD45^+CD34^+CD38^− Lin^− (stem) and CD45^+CD34^+CD38^+ Lin^− (progenitor) cells were determined in each tissue. Analysis of progenitor cell subpopulations was performed for AML-37, with GMP identified as CD123^+CD45RA^+, CMP as […] and megakaryocyte-erythroid progenitors (MEP) as […]. Inclusion/exclusion criteria were pre-established based on minimum CD45^+ cell engraftment rates of 1% in peripheral blood, as determined by previous PRIMAGRAFT™ experiments. […]

CC[C@H](OC)[C@@H](C)[C@H]1O[C@@H]1[C@@H](O)[C@H](C)/C=C/C=C(\C)[C@H]1OC(=O)C[C@H](O)CC[C@@](C)(O)[C@@H](OC(C)=O)/C=C/[C@@H]1C (stereo in doubt) [Formula 17S-FD-895, 17S-FD-895]
DNAJB1 intron 2 levels [1]: to a lesser extent
common myeloid progenitor (CMP) frequency ([2]; AML-37, 5 or 10 mg/kg): slight increase
GMP frequency ([2]; AML-37, 5 or 10 mg/kg, hematopoietic tissues): reduced GMP frequency; also recorded: significantly reduced
human leukemic burden in serial transplant recipients ([2]; recipients of CD34+ cells from 10 mg/kg group versus vehicle controls): marked reduction; also recorded: marked decrease
reduction of human stem cells (CD45+CD34+CD38− Lin−) ([2]; spleens, 10 mg/kg group versus vehicle controls, p<0.05): 68%
reduction of human progenitor cells (CD45+CD34+CD38+ Lin−) ([2]; spleens, 10 mg/kg group versus vehicle controls, p=0.08): 80%
human HSPC frequency ([2]; spleens, 10 mg/kg versus vehicle): decrease in human HSPC frequency
